# Test results: article PMC10307885, “A Phase 1/2 trial of SRA737 (a Chk1 inhibitor) administered orally in patients with advanced cancer” (British Journal of Cancer, 2023)
# System: patients with advanced solid tumours
# Assay: Phase 1/2 dose-escalation/expansion study: safety, TEAEs (NCI CTCAE v4.03), DLT, MTD, RP2D
# Type: in vivo
# Excerpt: The objectives of this first-in-human, Phase 1/2, open-label, dose-escalation study of SRA737 as a single agent were to establish the safety profile, define the maximum tolerated dose (MTD) and the recommended Phase 2 dose (RP2D) and schedule, and to evaluate preliminary efficacy in prospectively selected genetically defined patients enrolled in indication-specific expansion cohorts. Secondary objectives included defining the pharmacokinetic (PK) profile of SRA737.
# The study used an accelerated titration design in dose escalation beginning with single subject dose-level cohorts. Doubling of the SRA737 dose was permitted in the subsequent cohort if a dose level was determined to be safe by the cohort review committee consisting of the lead investigator, study investigators representing the site(s) currently enrolling patients, and representatives of the study sponsor. In the event of any SRA737-related adverse event Grade 2 or greater toxicity during Cycle 1, the cohort was to be expanded to 3 to 6 subjects. Thereafter the study followed a rolling 6 design wherein once the first subject completed the 7-day observation period following the first dose of SRA737, subsequent subjects in that cohort started treatment. […] Enrolment of expansion cohorts at the highest dose level determined to be safe and tolerable was initiated prior to the completion of dose escalation and determination of MTD or RP2D.
# A single dose of SRA737 was given at one visit on Day −7 to Day −4 (prior to the start of Cycle 1) for PK assessments. SRA737 was then administered orally on a continuous daily dosing schedule in 28-day cycles. An accelerated titration design was used with single-patient dose-escalation cohorts starting with 20 mg SRA737 administered once daily (QD) in the first cohort, with dose doubling in subsequent single-patient cohorts. If a patient had SRA737-related Grade 2 toxicity in a dose level cohort during Cycle 1, that cohort was expanded to 3 to 6 patients, and subsequent cohorts followed a rolling six design.
# Patients were assessed for DLT from the first SRA737 dose (Day −7 to Day −4) until the end of Cycle 1 (up to 35 days).
# Expansion cohorts including up to 20 patients with one of the 6 specified indication-specific tumour types, were treated at SRA737 doses selected by the cohort review committee based on all available safety and PK data; expansion doses were at or below the maximum tolerated dose (MTD) from the dose-escalation phase. Patients could continue treatment until disease progression or discontinuation from study due to unacceptable toxicity, investigator/sponsor decision, or withdrawal of consent.
# Safety assessments including adverse events, laboratory parameters, electrocardiograms (ECGs), and echocardiograms were conducted throughout treatment and until 30 days after the last study treatment or initiation of new anticancer treatment.
# The Safety Evaluable population included all patients who received at least one dose of SRA737.
# The DLT window is defined from the first dose (Day -7 to Day -4) until the end of Cycle 1 (up to 35 days).
# A DLT is defined as any highly probably or probably SRA737-related event of: […]
# [1] = 1300 mg QD cohort, three patients enrolled
# [2] = 49 patients treated at SRA737 doses >800 mg QD
# [3] = irrespective of SRA737 dose level, any grade
compound,measurement,setting,value
"N#Cc1cnc(Nc2cc(NC[C@H]3CNCCO3)c(C(F)(F)F)cn2)cn1 [SRA737, (R)-5-((4-((morpholin-2-ylmethyl)amino)-5-(trifluoromethyl)pyridin-2-yl)amino)pyr azine-2-carbonitrile]",Dose-limiting toxicity (DLT),"500 mg BID, one patient, four evaluable for DLT",Grade 4 thrombocytopenia
same,Grade 1–2 TEAEs of diarrhoea,800 mg SRA737 dose level,68 % of patients
same,Grade 1–2 TEAEs of nausea,800 mg SRA737 dose level,78 % of patients
same,Grade 1–2 TEAEs of vomiting,800 mg SRA737 dose level,50 % of patients
same,patients with Grade 3 diarrhoea (GI toxicity above Grade 2),800 mg dose level,one
same,Dose-limiting toxicities (DLTs),1000 mg QD dose-escalation cohort (or any lower-dose cohorts),No DLTs
same,patients requiring dose reduction to 600 mg due to GI intolerability,"1000 mg QD, 10 evaluable patients",3 patients
same,Grade 1–2 TEAEs of diarrhoea,1000 mg SRA737 dose level,72 % of patients
same,Grade 1–2 TEAEs of nausea,1000 mg SRA737 dose level,65 % of patients
same,Grade 1–2 TEAEs of vomiting,1000 mg SRA737 dose level,63 % of patients
same,patients with Grade 3 diarrhoea (GI toxicity above Grade 2),1000 mg dose level,1 patient
same,patients with both Grade 3 nausea and vomiting,1000 mg dose level,single patient
same,"patients with dose-limiting GI intolerability (Grade 1–2 nausea, vomiting, and/or diarrhoea)",[1],2 patients
same,patients with dose-limiting Grade 3 neutropenia,[1],1 patient
same,discontinued due to SRA737-related TEAEs,16 patients of 107,15.0%
same,Adverse events leading to treatment discontinuation,34 patients of 107,31.8%
same,Grade 3 or higher TEAE related to SRA737: fatigue,[2],4%
same,Grade 3 or higher TEAE related to SRA737: neutropenia,[2],10%
same,Grade 3 or higher TEAE related to SRA737: rash/rash maculopapular combined,[2],6%
same,Any SRA737-related Grade ≥3 treatment-emergent adverse event (TEAE),Overall (N = 107),33 (30.8) n (%)
same,"Any SRA737-related treatment-emergent adverse event (TEAE), any grade",Overall (N = 107),98 (91.6) n (%)
same,SRA737-related TEAE of Grade 3 or higher: Aspartate aminotransferase increased,Overall (N = 107),2 (1.9) n (%)
same,SRA737-related TEAE of Grade 3 or higher: Diarrhoea,Overall (N = 107),2 (1.9) n (%)
same,SRA737-related TEAE of Grade 3 or higher: Dyspnoea,Overall (N = 107),2 (1.9) n (%)
same,SRA737-related TEAE of Grade 3 or higher: Fatigue,Overall (N = 107),2 (1.9) n (%)
same,SRA737-related TEAE of Grade 3 or higher: Lymphocyte count decreased,Overall (N = 107),3 (2.8) n (%)
same,SRA737-related TEAE of Grade 3 or higher: Neutropenia,Overall (N = 107),9 (8.4) n (%)
same,SRA737-related TEAE of Grade 3 or higher: Rash,Overall (N = 107),3 (2.8) n (%)
same,SRA737-related TEAE of Grade 3 or higher: Rash maculopapular,Overall (N = 107),3 (2.8) n (%)
same,SRA737-related TEAE of Grade 3 or higher: Thrombocytopenia,Overall (N = 107),3 (2.8) n (%)
same,SRA737-related TEAE of any grade: Anaemia,Overall (N = 107),16 (15.0) n (%)
same,SRA737-related TEAE of any grade: Decreased Appetite,Overall (N = 107),19 (17.8) n (%)
same,SRA737-related TEAE of any grade: Diarrhoea,Overall (N = 107),67 (62.6) n (%)
same,SRA737-related TEAE of any grade: Fatigue,Overall (N = 107),41 (38.3) n (%)
same,SRA737-related TEAE of any grade: Nausea,Overall (N = 107),64 (59.8) n (%)
same,SRA737-related TEAE of any grade: Neutropenia,Overall (N = 107),17 (15.9) n (%)
same,SRA737-related TEAE of any grade: Vomiting,Overall (N = 107),49 (45.8) n (%)
same,Any SRA737-related Grade ≥3 treatment-emergent adverse event (TEAE),SRA737 dose > 800 mg (N = 49),19 (38.8) n (%)
same,"Any SRA737-related treatment-emergent adverse event (TEAE), any grade",SRA737 dose > 800 mg (N = 49),47 (95.9) n (%)
same,SRA737-related TEAE of Grade 3 or higher: Aspartate aminotransferase increased,SRA737 dose > 800 mg (N = 49),0 n (%)
same,SRA737-related TEAE of Grade 3 or higher: Diarrhoea,SRA737 dose > 800 mg (N = 49),1 (2.0) n (%)
same,SRA737-related TEAE of Grade 3 or higher: Dyspnoea,SRA737 dose > 800 mg (N = 49),0 n (%)
same,SRA737-related TEAE of Grade 3 or higher: Fatigue,SRA737 dose > 800 mg (N = 49),2 (4.1) n (%)
same,SRA737-related TEAE of Grade 3 or higher: Lymphocyte count decreased,SRA737 dose > 800 mg (N = 49),0 n (%)
same,SRA737-related TEAE of Grade 3 or higher: Neutropenia,SRA737 dose > 800 mg (N = 49),5 (10.2) n (%)
same,SRA737-related TEAE of Grade 3 or higher: Rash,SRA737 dose > 800 mg (N = 49),1 (2.0) n (%)
same,SRA737-related TEAE of Grade 3 or higher: Rash maculopapular,SRA737 dose > 800 mg (N = 49),2 (4.1) n (%)
same,SRA737-related TEAE of Grade 3 or higher: Thrombocytopenia,SRA737 dose > 800 mg (N = 49),1 (2.0) n (%)
same,SRA737-related TEAE of any grade: Anaemia,SRA737 dose > 800 mg (N = 49),11 (22.4) n (%)
same,SRA737-related TEAE of any grade: Decreased Appetite,SRA737 dose > 800 mg (N = 49),7 (14.3) n (%)
same,SRA737-related TEAE of any grade: Diarrhoea,SRA737 dose > 800 mg (N = 49),34 (69.4) n (%)
same,SRA737-related TEAE of any grade: Fatigue,SRA737 dose > 800 mg (N = 49),27 (55.1) n (%)
same,SRA737-related TEAE of any grade: Nausea,SRA737 dose > 800 mg (N = 49),32 (65.3) n (%)
same,SRA737-related TEAE of any grade: Neutropenia,SRA737 dose > 800 mg (N = 49),7 (14.3) n (%)
same,SRA737-related TEAE of any grade: Vomiting,SRA737 dose > 800 mg (N = 49),28 (57.1) n (%)
same,Any SRA737-related Grade ≥3 treatment-emergent adverse event (TEAE),SRA737 dose ≤ 800 mg (N = 58),14 (24.1) n (%)
same,"Any SRA737-related treatment-emergent adverse event (TEAE), any grade",SRA737 dose ≤ 800 mg (N = 58),51 (87.9) n (%)
same,SRA737-related TEAE of Grade 3 or higher: Aspartate aminotransferase increased,SRA737 dose ≤ 800 mg (N = 58),2 (3.4) n (%)
same,SRA737-related TEAE of Grade 3 or higher: Diarrhoea,SRA737 dose ≤ 800 mg (N = 58),1 (1.7) n (%)
same,SRA737-related TEAE of Grade 3 or higher: Dyspnoea,SRA737 dose ≤ 800 mg (N = 58),2 (3.4) n (%)
same,SRA737-related TEAE of Grade 3 or higher: Fatigue,SRA737 dose ≤ 800 mg (N = 58),0 n (%)
same,SRA737-related TEAE of Grade 3 or higher: Lymphocyte count decreased,SRA737 dose ≤ 800 mg (N = 58),3 (5.2) n (%)
same,SRA737-related TEAE of Grade 3 or higher: Neutropenia,SRA737 dose ≤ 800 mg (N = 58),4 (6.9) n (%)
same,SRA737-related TEAE of Grade 3 or higher: Rash,SRA737 dose ≤ 800 mg (N = 58),2 (3.4) n (%)
same,SRA737-related TEAE of Grade 3 or higher: Rash maculopapular,SRA737 dose ≤ 800 mg (N = 58),1 (1.7) n (%)
same,SRA737-related TEAE of Grade 3 or higher: Thrombocytopenia,SRA737 dose ≤ 800 mg (N = 58),2 (3.4) n (%)
same,SRA737-related TEAE of any grade: Anaemia,SRA737 dose ≤ 800 mg (N = 58),5 (8.6) n (%)
same,SRA737-related TEAE of any grade: Decreased Appetite,SRA737 dose ≤ 800 mg (N = 58),12 (20.7) n (%)
same,SRA737-related TEAE of any grade: Diarrhoea,SRA737 dose ≤ 800 mg (N = 58),33 (56.9) n (%)
same,SRA737-related TEAE of any grade: Fatigue,SRA737 dose ≤ 800 mg (N = 58),14 (24.1) n (%)
same,SRA737-related TEAE of any grade: Nausea,SRA737 dose ≤ 800 mg (N = 58),32 (55.2) n (%)
same,SRA737-related TEAE of any grade: Neutropenia,SRA737 dose ≤ 800 mg (N = 58),10 (17.2) n (%)
same,SRA737-related TEAE of any grade: Vomiting,SRA737 dose ≤ 800 mg (N = 58),21 (36.2) n (%)
same,Grade 3 or higher neutropenia rate,"current study, overall",8%
same,"Dose-limiting toxicity, events included",daily doses of 1000 and 1300 mg QD,"gastrointestinal events, neutropenia and thrombocytopenia"
same,patients who tolerated the dose but required anti-emetic medication and/or night-time dosing,"human, in vivo",7 patients
same,Fatal adverse events attributed to SRA737,in vivo,none
same,Fatal adverse events reported,in vivo,ten
same,TEAE attributed to SRA737: anaemia,[3],15%
same,TEAE attributed to SRA737: decreased appetite,[3],18%
same,TEAE attributed to SRA737: diarrhoea,[3],63%
same,TEAE attributed to SRA737: fatigue,[3],38%
same,TEAE attributed to SRA737: nausea,[3],60%
same,TEAE attributed to SRA737: neutropenia,[3],16%
same,TEAE attributed to SRA737: vomiting,[3],46%
same,recommended Phase 2 dose (RP2D),oral monotherapy,800 mg QD
same,maximum tolerated dose (MTD),"oral monotherapy, continuous daily dosing, 28-day cycles",1000 mg QD
same,"GI events (diarrhoea, nausea, vomiting) reported at Grade 3 or higher severity",patients treated at 800 mg QD or higher,less than 5 % of patients
